Measured values published in ChEMBL document CHEMBL1177663, “Synthesis and anti-HIV activity of 2-naphthyl substituted DAPY analogues as non-nucleoside reverse transcriptase inhibitors” (Bioorg Med Chem, 2010).

Assays:
[1] = test system: Human immunodeficiency virus 1; test: Antiviral activity against HIV1 bearing reverse transcriptase K103N and Y181C double mutation infected in human MT4 cells assessed as inhibition of virus-induced cytopathic effect after 4 days by MTT assay; format: functional, organism-based; conditions: Human immunodeficiency virus 1, MT4, 96 h
[2] = Cytotoxicity against human MT4 cells after 4 days by MTT assay; format: cell-based
[3] = Selectivity index, ratio of CC50 for human MT4 cells to EC50 for wild type HIV1 3B; format: toxicity, cell-based; conditions: read-out: Ratio CC50/EC50
[4] = test system: Human immunodeficiency virus 1; test: Antiviral activity against wild type HIV1 3B infected in human MT4 cells assessed as inhibition of virus-induced cytopathic effect after 4 days by MTT assay; format: functional, organism-based; conditions: Human immunodeficiency virus 1, 3B, MT4, 96 h
[5] = biological target: Human immunodeficiency virus type 1 reverse transcriptase (Human immunodeficiency virus 1, UniProt Q72547); test: Inhibition of HIV1 reverse transcriptase

SMILES	EC50 [1] [nM]	CC50 at 96 h [2] [µM]	selectivity ratio [3]	EC50 [4] [nM]	IC50 [5] [nM]
Cc1cc(Oc2ccc3cc(C#N)ccc3c2)nc(Nc2ccc(C#N)cc2)n1	332000	> 332	> 96500	3	
Cc1ccnc2c1NC(=O)c1cccnc1N2C1CC1 [NEVIRAPINE]	> 15000	> 15		75	
Cc1cnc(Nc2ccc(C#N)cc2)nc1Oc1ccc2cc(C#N)ccc2c1Br	830	> 274	> 23800	12	
N#Cc1ccc(Nc2nccc(Oc3ccc4cc(C#N)ccc4c3Br)n2)cc1	240	283	181000	2	3010
Cc1cnc(Nc2ccc(C#N)cc2)nc1Oc1ccc2cc(C#N)ccc2c1	332000	> 332	> 44900	7	
COc1cc2cc(C#N)ccc2c(OC)c1Oc1ccnc(Nc2ccc(C#N)cc2)n1	160	> 118	≥ 25000	5	94.5
COc1cc2cc(C#N)ccc2cc1Oc1ccnc(Nc2ccc(C#N)cc2)n1	319000	> 318	> 158000	2	1320
O=C1Nc2ccc(Cl)cc2[C@@](C#CC2CC2)(C(F)(F)F)O1 [EFAVIRENZ]	560	> 63.4			
COc1cc2cc(C#N)ccc2c(Cl)c1Oc1ccnc(Nc2ccc(C#N)cc2)n1	150	> 191	≥ 25700	7	
N#Cc1ccc(Nc2nccc(Oc3cc4ccc(C#N)cc4cc3Br)n2)cc1	> 56500	> 56.5	50400	1	1130
COc1c(Oc2ccnc(Nc3ccc(C#N)cc3)n2)ccc2cc(C#N)ccc12	380	> 211	≥ 134000	2	2290
N#Cc1ccc(Nc2nccc(Oc3ccc4cc(C#N)ccc4c3Cl)n2)cc1	700	269	48000	6	
Cc1cc(Oc2ccc3cc(C#N)ccc3c2Br)nc(Nc2ccc(C#N)cc2)n1	220	> 274	> 40100	7	
N#Cc1ccc(Nc2nccc(Oc3ccc4cc(C#N)ccc4c3)n2)cc1	6300	> 68.8	20500	3	8720
CC(C)Nc1cccnc1N1CCN(C(=O)c2cc3cc(NS(C)(=O)=O)ccc3[nH]2)CC1 [DELAVIRDINE]	> 3620	> 3.62			
